Reference: publication PMC8632988, “Inhibition of SYK and cSrc kinases can protect bone and cartilage in preclinical models of osteoarthritis and rheumatoid arthritis” (Scientific Reports, 2021)
Where “and” joins values, the source holds several entries; their conditions need not be identical. Equal entries are not always repeated.

Experiments:
Assay in all cases: Kinase selectivity profile assay
Type in all cases: biochemical
RSK1 = target: T1, RSK1 (Homo sapiens, UniProt Q15418); conditions: 500 nM; relative to DMSO; read-out: Residual enzymatic activity
T1 construct: purchased Reaction Biology Corporation
How it was run: (§1)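 Radiometric kinase assay run by a standard protocol. Unbound phosphate was removed by washing filters in phosphoric acid, and product radioactivity gave percent remaining kinase activity versus DMSO vehicle reactions. Run in duplicate.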

BRSK1 = target: T2, BRSK1 (Homo sapiens, UniProt Q8TDC3); conditions: 500 nM; relative to DMSO; read-out: Residual enzymatic activity
T2 construct: purchased Reaction Biology Corporation
How it was run: as §1

TBK1 = target: T3, TBK1 (Homo sapiens, UniProt Q9UHD2); conditions: 500 nM; relative to DMSO; read-out: Residual enzymatic activity
T3 construct: purchased Reaction Biology Corporation
How it was run: as §1

CLK1 = target: T4, CLK1 (Homo sapiens, UniProt P49759); conditions: 500 nM; relative to DMSO; read-out: Residual enzymatic activity
T4 construct: purchased Reaction Biology Corporation
How it was run: as §1

DYRK1B = target: T5, DYRK1B (Homo sapiens, UniProt Q9Y463); conditions: 500 nM; relative to DMSO; read-out: Residual enzymatic activity
T5 construct: purchased Reaction Biology Corporation
How it was run: as §1

ZAP70 = target: T6, ZAP70 (Homo sapiens, UniProt P43403); conditions: 500 nM; relative to DMSO; read-out: Residual enzymatic activity
T6 construct: purchased Reaction Biology Corporation
How it was run: as §1

TYK1/LTK = target: T7, TYK1/LTK (Homo sapiens, UniProt P29376); conditions: 500 nM; relative to DMSO; read-out: Residual enzymatic activity
T7 construct: purchased Reaction Biology Corporation
How it was run: as §1

PKCa = target: T8, PKCa (Homo sapiens, UniProt P17252); conditions: 500 nM; relative to DMSO; read-out: Residual enzymatic activity
T8 construct: purchased Reaction Biology Corporation
How it was run: as §1

ACK1 = target: T9, ACK1 (Homo sapiens, UniProt Q07912)
T9 construct: purchased Reaction Biology Corporation (assay service)
T9 sequence (Q07912 whole entry): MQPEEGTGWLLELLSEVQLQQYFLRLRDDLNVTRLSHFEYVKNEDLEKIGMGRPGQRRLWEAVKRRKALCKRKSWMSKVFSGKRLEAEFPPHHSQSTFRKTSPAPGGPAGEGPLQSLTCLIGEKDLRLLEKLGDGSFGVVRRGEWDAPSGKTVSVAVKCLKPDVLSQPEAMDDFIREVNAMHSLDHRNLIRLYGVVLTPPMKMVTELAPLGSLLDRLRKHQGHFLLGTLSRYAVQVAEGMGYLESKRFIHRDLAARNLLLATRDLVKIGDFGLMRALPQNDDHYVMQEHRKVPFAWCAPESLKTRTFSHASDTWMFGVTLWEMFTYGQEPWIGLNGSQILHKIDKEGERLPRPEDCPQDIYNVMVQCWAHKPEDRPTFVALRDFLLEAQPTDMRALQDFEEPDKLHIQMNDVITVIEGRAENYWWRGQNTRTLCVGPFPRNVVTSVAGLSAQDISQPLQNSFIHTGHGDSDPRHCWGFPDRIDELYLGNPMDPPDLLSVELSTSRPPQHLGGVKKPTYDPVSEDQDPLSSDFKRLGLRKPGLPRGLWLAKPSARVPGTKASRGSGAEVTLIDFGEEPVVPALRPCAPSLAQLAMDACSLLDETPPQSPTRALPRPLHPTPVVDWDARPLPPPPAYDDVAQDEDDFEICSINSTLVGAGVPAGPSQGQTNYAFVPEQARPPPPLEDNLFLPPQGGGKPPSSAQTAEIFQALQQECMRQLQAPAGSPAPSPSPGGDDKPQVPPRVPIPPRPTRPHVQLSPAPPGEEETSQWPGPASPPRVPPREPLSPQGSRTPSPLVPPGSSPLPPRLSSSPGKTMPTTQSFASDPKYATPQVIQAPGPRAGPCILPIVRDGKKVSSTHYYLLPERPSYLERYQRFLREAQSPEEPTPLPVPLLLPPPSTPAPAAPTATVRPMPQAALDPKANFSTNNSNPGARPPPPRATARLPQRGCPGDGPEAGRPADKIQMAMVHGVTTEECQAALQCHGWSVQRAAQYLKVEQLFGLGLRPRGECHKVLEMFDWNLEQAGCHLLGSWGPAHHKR
How it was run: as §1

CLK3 = target: T10, CLK3 (Homo sapiens, UniProt P49761); conditions: 500 nM; relative to DMSO; read-out: Residual enzymatic activity
T10 construct: purchased Reaction Biology Corporation
How it was run: as §1

STK16 = target: T11, STK16 (Homo sapiens, UniProt O75716); conditions: 500 nM; relative to DMSO; read-out: Residual enzymatic activity
T11 construct: purchased Reaction Biology Corporation
T11 sequence (O75716 whole entry): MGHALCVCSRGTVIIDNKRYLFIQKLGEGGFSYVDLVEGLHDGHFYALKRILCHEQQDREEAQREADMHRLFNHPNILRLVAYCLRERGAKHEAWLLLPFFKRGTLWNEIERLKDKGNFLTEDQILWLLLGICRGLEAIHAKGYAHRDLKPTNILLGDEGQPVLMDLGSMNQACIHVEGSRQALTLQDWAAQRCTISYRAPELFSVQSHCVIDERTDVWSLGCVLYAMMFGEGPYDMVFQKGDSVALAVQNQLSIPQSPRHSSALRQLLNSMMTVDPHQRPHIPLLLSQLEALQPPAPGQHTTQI
How it was run: as §1

MYO3b = target: T12, MYO3b (Homo sapiens, UniProt Q8WXR4); conditions: 500 nM; relative to DMSO; read-out: Residual enzymatic activity
T12 construct: purchased Reaction Biology Corporation
How it was run: as §1

IRAK1 = target: T13, IRAK1 (Homo sapiens, UniProt P51617); conditions: 500 nM; relative to DMSO; read-out: Residual enzymatic activity
T13 construct: purchased Reaction Biology Corporation
How it was run: as §1

EPHA4 = target: T14, EPHA4 (Homo sapiens, UniProt P54764); conditions: 500 nM, relative to DMSO
T14 construct: purchased Reaction Biology Corporation
T14 sequence (P54764 20-986): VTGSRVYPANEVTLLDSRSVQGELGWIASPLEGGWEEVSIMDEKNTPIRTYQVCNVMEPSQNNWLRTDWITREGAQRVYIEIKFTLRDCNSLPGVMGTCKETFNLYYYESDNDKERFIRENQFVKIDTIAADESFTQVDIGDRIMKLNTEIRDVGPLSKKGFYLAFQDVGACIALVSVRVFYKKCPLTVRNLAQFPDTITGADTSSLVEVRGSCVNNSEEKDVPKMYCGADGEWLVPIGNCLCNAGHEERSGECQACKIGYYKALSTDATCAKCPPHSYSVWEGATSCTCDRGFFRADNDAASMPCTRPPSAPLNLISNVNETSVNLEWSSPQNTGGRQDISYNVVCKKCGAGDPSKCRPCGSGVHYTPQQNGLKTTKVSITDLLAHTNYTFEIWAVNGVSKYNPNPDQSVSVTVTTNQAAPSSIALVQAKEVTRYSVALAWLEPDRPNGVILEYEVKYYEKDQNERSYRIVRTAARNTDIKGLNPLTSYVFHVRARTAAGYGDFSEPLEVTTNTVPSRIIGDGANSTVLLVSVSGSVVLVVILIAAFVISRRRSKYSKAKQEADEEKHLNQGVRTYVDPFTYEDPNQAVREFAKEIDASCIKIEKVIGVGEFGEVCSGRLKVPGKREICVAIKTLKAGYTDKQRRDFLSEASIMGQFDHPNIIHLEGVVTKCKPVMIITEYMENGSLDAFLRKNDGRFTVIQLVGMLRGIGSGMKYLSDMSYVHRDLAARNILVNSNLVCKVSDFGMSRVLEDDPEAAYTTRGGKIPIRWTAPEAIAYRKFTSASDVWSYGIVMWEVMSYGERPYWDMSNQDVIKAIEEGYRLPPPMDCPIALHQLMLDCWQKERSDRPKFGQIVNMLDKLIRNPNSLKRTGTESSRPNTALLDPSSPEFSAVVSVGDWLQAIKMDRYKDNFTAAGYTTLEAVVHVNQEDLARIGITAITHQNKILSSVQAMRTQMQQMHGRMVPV
How it was run: as §1

GRK7 = target: T15, GRK7 (Homo sapiens, UniProt Q8WTQ7); conditions: 500 nM; relative to DMSO; read-out: Residual enzymatic activity
T15 construct: purchased Reaction Biology Corporation
How it was run: as §1

FGFR1 = target: T16, FGFR1 (Homo sapiens, UniProt P11362); conditions: 500 nM; relative to DMSO
T16 construct: purchased Reaction Biology Corporation
How it was run: as §1

BLK = target: T17, BLK (Homo sapiens, UniProt P51451)
T17 construct: purchased Reaction Biology Corporation (assay service)
T17 sequence (P51451 whole entry): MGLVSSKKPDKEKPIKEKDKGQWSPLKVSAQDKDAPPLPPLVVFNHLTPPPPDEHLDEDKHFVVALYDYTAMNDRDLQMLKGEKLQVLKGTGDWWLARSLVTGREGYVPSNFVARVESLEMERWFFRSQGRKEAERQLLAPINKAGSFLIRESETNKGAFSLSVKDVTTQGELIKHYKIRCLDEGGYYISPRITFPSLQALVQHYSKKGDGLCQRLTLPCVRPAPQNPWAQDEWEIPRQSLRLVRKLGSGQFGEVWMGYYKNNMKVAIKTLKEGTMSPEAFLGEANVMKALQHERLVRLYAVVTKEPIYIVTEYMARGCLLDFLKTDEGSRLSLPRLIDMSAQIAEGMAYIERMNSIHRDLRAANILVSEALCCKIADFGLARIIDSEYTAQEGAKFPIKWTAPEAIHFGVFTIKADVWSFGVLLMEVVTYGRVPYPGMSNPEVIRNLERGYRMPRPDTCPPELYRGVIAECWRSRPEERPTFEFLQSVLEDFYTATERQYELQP
How it was run: as §1

ALK2/ACVR1 = target: T18, ALK2/ACVR1 (Homo sapiens, UniProt Q04771); conditions: 500 nM; relative to DMSO; read-out: Residual enzymatic activity
T18 construct: purchased Reaction Biology Corporation
How it was run: as §1

HPK1/MAP4K1 = target: T19, HPK1/MAP4K1 (Homo sapiens, UniProt Q92918); conditions: 500 nM; relative to DMSO; read-out: Residual enzymatic activity
T19 construct: purchased Reaction Biology Corporation
How it was run: as §1

MEKK3 = target: T20, MEKK3 (Homo sapiens, UniProt Q99759); conditions: 500 nM; relative to DMSO; read-out: Residual enzymatic activity
T20 construct: purchased Reaction Biology Corporation
How it was run: as §1

STK33 = target: T21, STK33 (Homo sapiens, UniProt Q9BYT3); conditions: 500 nM; relative to DMSO; read-out: Residual enzymatic activity
T21 construct: purchased Reaction Biology Corporation
How it was run: as §1

NEK7 = target: T22, NEK7 (Homo sapiens, UniProt Q8TDX7); conditions: 500 nM; relative to DMSO; read-out: Residual enzymatic activity
T22 construct: purchased Reaction Biology Corporation
How it was run: as §1

EPHB2 = target: T23, EPHB2 (Homo sapiens, UniProt P29323); conditions: 500 nM; relative to DMSO
T23 construct: purchased Reaction Biology Corporation
How it was run: as §1

PIM3 = target: T24, PIM3 (Homo sapiens, UniProt Q86V86); conditions: 500 nM; relative to DMSO; read-out: Residual enzymatic activity
T24 construct: purchased Reaction Biology Corporation
How it was run: as §1

MST2/STK3 = target: T25, MST2/STK3 (Homo sapiens, UniProt Q13188); conditions: 500 nM; relative to DMSO; read-out: Residual enzymatic activity
T25 construct: purchased Reaction Biology Corporation
How it was run: as §1

SRPK2 = target: T26, SRPK2 (Homo sapiens, UniProt P78362); conditions: 500 nM; relative to DMSO; read-out: Residual enzymatic activity
T26 construct: purchased Reaction Biology Corporation
How it was run: as §1

P38a/MAPK14 = target: T27, P38a/MAPK14 (Homo sapiens, UniProt Q16539); conditions: 500 nM; relative to DMSO; read-out: Residual enzymatic activity
T27 construct: purchased Reaction Biology Corporation
How it was run: as §1

CTK/MATK = target: T28, CTK/MATK (Homo sapiens, UniProt P42679); conditions: 500 nM; relative to DMSO; read-out: Residual enzymatic activity
T28 construct: purchased Reaction Biology Corporation
T28 sequence (P42679 whole entry): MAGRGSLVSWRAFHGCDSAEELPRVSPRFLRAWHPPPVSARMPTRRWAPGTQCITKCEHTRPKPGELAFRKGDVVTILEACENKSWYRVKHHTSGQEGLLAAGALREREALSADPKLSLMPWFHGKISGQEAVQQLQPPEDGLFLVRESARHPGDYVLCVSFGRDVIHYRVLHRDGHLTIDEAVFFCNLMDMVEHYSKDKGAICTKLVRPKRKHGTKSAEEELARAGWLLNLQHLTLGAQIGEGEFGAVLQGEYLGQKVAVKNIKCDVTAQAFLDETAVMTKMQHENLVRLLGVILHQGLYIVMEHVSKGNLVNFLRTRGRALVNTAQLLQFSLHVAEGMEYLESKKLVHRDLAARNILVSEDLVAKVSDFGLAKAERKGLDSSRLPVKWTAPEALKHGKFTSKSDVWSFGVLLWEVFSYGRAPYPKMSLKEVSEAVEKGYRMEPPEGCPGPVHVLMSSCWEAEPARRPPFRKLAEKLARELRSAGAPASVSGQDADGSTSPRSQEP
How it was run: as §1

CDK6/cyclin D1 = target: T29, CDK6/cyclin D1 (Homo sapiens, UniProt Q00534); conditions: 500 nM; relative to DMSO; read-out: Residual enzymatic activity
T29 construct: purchased Reaction Biology Corporation
How it was run: as §1

PKD2/PRKD2 = target: T30, PKD2/PRKD2 (Homo sapiens, UniProt Q9BZL6); conditions: 500 nM; relative to DMSO; read-out: Residual enzymatic activity
T30 construct: purchased Reaction Biology Corporation
T30 sequence (Q9BZL6 whole entry): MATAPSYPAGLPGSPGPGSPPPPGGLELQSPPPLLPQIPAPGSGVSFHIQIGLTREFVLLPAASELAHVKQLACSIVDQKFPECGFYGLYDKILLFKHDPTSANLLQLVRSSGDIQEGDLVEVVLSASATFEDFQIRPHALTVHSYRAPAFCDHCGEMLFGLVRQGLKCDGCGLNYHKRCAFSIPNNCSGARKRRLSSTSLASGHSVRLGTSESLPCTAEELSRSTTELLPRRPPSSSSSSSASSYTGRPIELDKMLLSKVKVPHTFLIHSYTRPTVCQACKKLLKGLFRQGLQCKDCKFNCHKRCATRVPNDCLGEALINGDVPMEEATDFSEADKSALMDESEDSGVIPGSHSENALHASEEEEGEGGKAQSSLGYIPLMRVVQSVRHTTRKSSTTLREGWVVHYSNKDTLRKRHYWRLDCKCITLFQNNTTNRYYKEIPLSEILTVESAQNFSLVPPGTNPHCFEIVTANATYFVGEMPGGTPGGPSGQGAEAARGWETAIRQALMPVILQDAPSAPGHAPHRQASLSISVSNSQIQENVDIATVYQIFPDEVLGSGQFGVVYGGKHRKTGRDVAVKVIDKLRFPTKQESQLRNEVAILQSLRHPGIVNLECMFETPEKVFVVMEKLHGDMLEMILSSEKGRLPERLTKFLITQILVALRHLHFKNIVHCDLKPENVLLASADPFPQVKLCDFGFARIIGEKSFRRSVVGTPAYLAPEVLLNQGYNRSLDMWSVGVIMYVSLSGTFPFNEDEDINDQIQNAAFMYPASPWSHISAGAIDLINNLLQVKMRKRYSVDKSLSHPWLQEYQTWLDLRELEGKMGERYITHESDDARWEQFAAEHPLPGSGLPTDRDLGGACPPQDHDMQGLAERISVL
How it was run: as §1

FRK/PTK5 = target: T31, FRK/PTK5 (Homo sapiens, UniProt P42685); conditions: 500 nM, relative to DMSO
T31 construct: purchased Reaction Biology Corporation
T31 sequence (P42685 whole entry): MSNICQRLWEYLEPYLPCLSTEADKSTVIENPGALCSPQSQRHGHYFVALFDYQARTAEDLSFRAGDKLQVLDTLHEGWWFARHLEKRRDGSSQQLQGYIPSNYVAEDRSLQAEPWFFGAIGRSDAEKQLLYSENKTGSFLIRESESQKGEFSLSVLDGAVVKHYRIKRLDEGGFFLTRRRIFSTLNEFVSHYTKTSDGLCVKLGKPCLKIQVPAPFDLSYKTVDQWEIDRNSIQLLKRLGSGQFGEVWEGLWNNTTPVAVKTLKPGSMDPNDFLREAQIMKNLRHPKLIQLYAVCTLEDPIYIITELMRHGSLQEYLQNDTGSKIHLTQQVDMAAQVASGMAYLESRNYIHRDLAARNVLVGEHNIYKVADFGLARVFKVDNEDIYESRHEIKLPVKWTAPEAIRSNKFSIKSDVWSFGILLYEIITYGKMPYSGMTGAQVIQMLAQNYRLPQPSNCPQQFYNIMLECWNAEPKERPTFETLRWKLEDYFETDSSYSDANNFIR
How it was run: as §1

c-MER = target: T32, c-MER (Homo sapiens, UniProt Q12866); conditions: 500 nM; relative to DMSO; read-out: Residual enzymatic activity
T32 construct: purchased Reaction Biology Corporation
How it was run: as §1

LKB1 = target: T33, LKB1 (Homo sapiens, UniProt Q15831); conditions: 500 nM; relative to DMSO; read-out: Residual enzymatic activity
T33 construct: purchased Reaction Biology Corporation
How it was run: as §1

CDK5/p25 = target: T34, CDK5/p25 (Homo sapiens, UniProt Q00535); conditions: 500 nM; relative to DMSO; read-out: Residual enzymatic activity
T34 construct: purchased Reaction Biology Corporation
How it was run: as §1

c-MET = target: T35, c-MET (Homo sapiens, UniProt P08581); conditions: 500 nM; relative to DMSO; read-out: Residual enzymatic activity
T35 construct: purchased Reaction Biology Corporation
How it was run: as §1

PKN2/PRK2 = target: T36, PKN2/PRK2 (Homo sapiens, UniProt Q16513); conditions: 500 nM; relative to DMSO; read-out: Residual enzymatic activity
T36 construct: purchased Reaction Biology Corporation
How it was run: as §1

DLK/MAP3K12 = target: T37, DLK/MAP3K12 (Homo sapiens, UniProt Q12852); conditions: 500 nM; relative to DMSO; read-out: Residual enzymatic activity
T37 construct: purchased Reaction Biology Corporation
How it was run: as §1

JAK1 = target: T38, JAK1 (Homo sapiens, UniProt P23458); conditions: 500 nM; relative to DMSO; read-out: Residual enzymatic activity
T38 construct: purchased Reaction Biology Corporation
How it was run: as §1

NEK3 = target: T39, NEK3 (Homo sapiens, UniProt P51956); conditions: 500 nM; relative to DMSO; read-out: Residual enzymatic activity
T39 construct: purchased Reaction Biology Corporation
How it was run: as §1

ASK1/MAP3K5 = target: T40, ASK1/MAP3K5 (Homo sapiens, UniProt Q99683); conditions: 500 nM; relative to DMSO; read-out: Residual enzymatic activity
T40 construct: purchased Reaction Biology Corporation
How it was run: as §1

[1] = 500 nM, relative to DMSO, read-out: Residual enzymatic activity
[2] = 10-dose mode, threefold serial dilution from 10 μM
[3] = read-out: Residual enzymatic activity

Compound: COc1cc(Nc2ncnc(Nc3cc4c(cn3)NC(=O)C(C)(C)O4)n2)cc(OC)c1OC [MT-SYK-03]
- remaining activity at 0.5 µM (RSK1): 105%
- remaining activity at 0.5 µM (BRSK1): 92.6%
- remaining activity at 0.5 µM (TBK1): 66.8%
- remaining activity at 0.5 µM (CLK1): 90.4%
- remaining activity at 0.5 µM (DYRK1B): 90.6%
- remaining activity at 0.5 µM (ZAP70): 93.4%
- remaining activity at 0.5 µM (TYK1/LTK): 92%
- remaining activity at 0.5 µM (PKCa): 92.3%
- remaining activity at 0.5 µM (ACK1; [1]): 5.4%
- IC50 (ACK1; [2]): 86 nM and 85.7 nM
- remaining activity at 0.5 µM (CLK3): 103%
- remaining activity at 0.5 µM (STK16): 50.6%
- remaining activity at 0.5 µM (MYO3b): 95.4%
- remaining activity at 0.5 µM (IRAK1): 74.6%
- Residual enzymatic activity (EPHA4): 58.1%
- remaining activity at 0.5 µM (EPHA4; [3]): > 54%
- remaining activity at 0.5 µM (GRK7): 99.7%
- Residual enzymatic activity (FGFR1): 77.5%
- remaining activity at 0.5 µM (BLK; [1]): 19.8%
- IC50 (BLK; [2]): 9.6 nM
- inhibition at 0.5 µM (BLK; read-out: Inhibition at 500 nM): > 90%
- remaining activity at 0.5 µM (ALK2/ACVR1): 241%
- remaining activity at 0.5 µM (HPK1/MAP4K1): 107%
- remaining activity at 0.5 µM (MEKK3): 116%
- remaining activity at 0.5 µM (STK33): 70.5%
- remaining activity at 0.5 µM (NEK7): 95.9%
- Residual enzymatic activity (EPHB2): 77.7%
- remaining activity at 0.5 µM (PIM3): 98.8%
- remaining activity at 0.5 µM (MST2/STK3): 105%
- remaining activity at 0.5 µM (SRPK2): 104%
- remaining activity at 0.5 µM (P38a/MAPK14): 110%
- remaining activity at 0.5 µM (CTK/MATK): 96.6%
- remaining activity at 0.5 µM (CDK6/cyclin D1): 91.8%
- remaining activity at 0.5 µM (PKD2/PRKD2): 102%
- Residual enzymatic activity (FRK/PTK5): 56.5%
- remaining activity at 0.5 µM (FRK/PTK5; [3]): > 54%
- remaining activity at 0.5 µM (c-MER): 109%
- remaining activity at 0.5 µM (LKB1): 101%
- remaining activity at 0.5 µM (CDK5/p25): 102%
- remaining activity at 0.5 µM (c-MET): 108%
- remaining activity at 0.5 µM (PKN2/PRK2): 95.6%
- remaining activity at 0.5 µM (DLK/MAP3K12): 83.7%
- remaining activity at 0.5 µM (JAK1): 63.4%
- remaining activity at 0.5 µM (NEK3): 72%
- remaining activity at 0.5 µM (ASK1/MAP3K5): 102%
